According to US9642835B2, “Modulators of GTPase and use in relevant treatment” (STC.UNM, priority 2010, dated 2017):

Target: Cdc42 ACT (Cdc42Q61L) (Homo sapiens, UniProt P60953, Q61L)
Experiment: Bead-based flow cytometry dose response, BODIPY-FL-GTP binding
Settings: in the presence of Mg ions; read-out: EC50 for Cdc42(Q61L)

Chain of Cdc42 ACT (Cdc42Q61L) (P60953 whole entry Q61L): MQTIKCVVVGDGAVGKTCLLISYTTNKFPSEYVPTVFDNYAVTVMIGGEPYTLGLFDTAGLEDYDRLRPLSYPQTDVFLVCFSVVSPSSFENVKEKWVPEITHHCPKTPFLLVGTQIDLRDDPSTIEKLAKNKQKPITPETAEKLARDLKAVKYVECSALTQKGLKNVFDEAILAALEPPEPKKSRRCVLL

## COc1ccc(C2CC(c3ccccc3)=NN2c2ccc(S(N)(=O)=O)cc2)cc1 (stereo not shown) [MLS000693334, 4-[3-(4-methoxyphenyl)-5-phenyl-3,4-dihydropyrazol-2-yl]benzenesulfonamide]
  EC50: ~4 µM
